The target of the experiment is T1, human IL-17AA (Homo sapiens, UniProt Q16552).
T1 construct: host or cells: HEK (human embryonic kidney) cells
T1 sequence (Q16552 24-155): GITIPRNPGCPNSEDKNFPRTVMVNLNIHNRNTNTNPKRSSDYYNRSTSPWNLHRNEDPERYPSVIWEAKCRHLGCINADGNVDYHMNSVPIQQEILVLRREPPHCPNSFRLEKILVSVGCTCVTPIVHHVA
Kind of experiment: IL-8 release assay in human epithelial keratinocytes adult (HEKa). In kind it is cell-based. The settings on record: HEKa cells, 3 ng/mL HEK-human IL-17AA + 10 ng/mL human TNFalpha; read-out: Rel EC50 IL-8 release assay. The procedure, abridged: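 IL-8 release, quantified by HTRF and normalized to controls, reports IL-17 signaling in HEKa cells treated with compound plus final 3 ng/mL IL-17AA (HEK-derived) and 10 ng/mL TNF-alpha for 68-72 h; TNF-alpha-only wells set 100% inhibition. Four-parameter logistic fits (r^2>0.9) give relative IC50 and Emax; PrestoBlue flags cytotoxicity.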
For orientation: EC50 means the midpoint of the concentration-response curve. `Cc1n[nH]c(C)c1-c1ccc(NC(=O)[C@@H](NC(=O)c2ccnn2C(C)C)C2CCC3(CC2)CC3)cc1` [Example 112, N-[(1S)-2-[4-(3,5-dimethyl-1H-pyrazol-4-yl)anilino]-2-oxo-1-spiro[2.5]octan-6-yl-ethyl]-2-isopropyl-pyrazole-3-carboxamide]: the EC50 is less than 100 nM.

As for `CC[C@@H](C)[C@H](NC(=O)c1ccnn1C)C(=O)Nc1ccc(-c2c(C)n[nH]c2C)cc1` [Example 113], the concentration giving a half-maximal response (EC50) was more than 1000 nM. Consider `Cc1n[nH]c(C)c1-c1ccc(NC(=O)[C@@H](NC(=O)c2ccnn2C2CCC2)C(C2CC2)C2CC2)cc1` [Example 114, 2-cyclobutyl-N-[(1S)-1-(dicyclopropylmethyl)-2-[4-(3,5-dimethyl-1H-pyrazol-4-yl)anilino]-2-oxo-ethyl]pyrazole-3-carboxamide], for which the EC50 was less than 100 nM. `Cc1n[nH]c(C)c1-c1ccc(NC(=O)[C@@H](NC(=O)c2ccnn2CC(F)F)C(C2CC2)C2CC2)cc1` [Example 115, N-[(1S)-1-(dicyclopropylmethyl)-2-[4-(3,5-dimethyl-1H-pyrazol-4-yl)anilino]-2-oxo-ethyl]-2-(2,2-difluoroethyl)pyrazole-3-carboxamide]: the EC50 is less than 100 nM.

Consider `Cc1n[nH]c(C)c1-c1ccc(NC(=O)[C@@H](NC(=O)c2ccnn2C2CC2)C(C2CC2)C2CC2)cc1` [Example 116, 2-cyclopropyl-N-[(1S)-1-(dicyclopropylmethyl)-2-[4-(3,5-dimethyl-1H-pyrazol-4-yl)anilino]-2-oxo-ethyl]pyrazole-3-carboxamide], for which the concentration for a half-maximal effect (EC50) is less than 100 nM.

Consider `Cc1n[nH]c(C)c1-c1ccc(NC(=O)[C@@H](NC(=O)c2ccnn2C)C(C2CC2)C2CC2)cc1` [Example 117, N-[(1S)-1-(dicyclopropylmethyl)-2-[4-(3,5-dimethyl-1H-pyrazol-4-yl)anilino]-2-oxo-ethyl]-2-methyl-pyrazole-3-carboxamide], for which the half-maximal effective concentration (EC50) is less than 100 nM. In the case of `CCC(CC)[C@H](NC(=O)c1ccnn1C)C(=O)Nc1ccc(-c2c(C)n[nH]c2C)cc1` [Example 118], the EC50 is 100 to 1000 nM. As to `Cc1n[nH]c(C)c1-c1ccc(NC(=O)[C@@H](NC(=O)c2ccnn2C(C)CO)C(C2CC2)C2CC2)cc1` (some centres unmarked) [Example 120], the 50% effective concentration (EC50) was in the range of 100 to 1000 nM.

On to `CCC(CC)[C@H](NC(=O)c1ccnn1C(C)C)C(=O)Nc1ccc(-c2c(C)n[nH]c2C)cc1` [Example 121], for which the EC50 lay in the range of 100 to 1000 nM.

For `Cc1n[nH]c(C)c1-c1ccc(NC(=O)[C@@H](NC(=O)c2ccnn2CCO)C(C2CCC2)C2CCC2)cc1` [Example 122], the EC50 is less than 100 nM. As to `Cc1n[nH]c(C)c1-c1ccc(NC(=O)[C@@H](NC(=O)c2ccnn2C)[C@H]2CC[C@H](C)CC2)cc1` [Example 125, Trans N-[(1S)-2-[4-(3,5-dimethyl-1H-pyrazol-4-yl)anilino]-1-(4-methylcyclohexyl)-2-oxo-ethyl]-2-methyl-pyrazole-3-carboxamide], the EC50 was less than 100 nM. As to `CCn1nccc1C(=O)N[C@H](C(=O)Nc1ccc(-c2c(C)n[nH]c2C)cc1)[C@H]1CC[C@H](C)CC1` [Example 126, Trans N-[(1S)-2-[4-(3,5-dimethyl-1H-pyrazol-4-yl)anilino]-1-(4-methylcyclohexyl)-2-oxo-ethyl]-2-ethyl-pyrazole-3-carboxamide], the half-maximal effective concentration (EC50) is less than 100 nM. Next, `Cc1n[nH]c(C)c1-c1ccc(NC(=O)[C@@H](NC(=O)c2ccnn2C(C)C)[C@H]2CC[C@H](C)CC2)cc1` [Example 127, Trans N-[(1S)-2-[4-(3,5-dimethyl-1H-pyrazol-4-yl)anilino]-1-(4-methylcyclohexyl)-2-oxo-ethyl]-2-isopropyl-pyrazole-3-carboxamide]: less than 100 nM; `CCC(C)n1nccc1C(=O)N[C@H](C(=O)Nc1ccc(-c2c(C)n[nH]c2C)cc1)C(C1CC1)C1CC1` (stereo partly drawn) [Example 128, N-[(1S)-1-(dicyclopropylmethyl)-2-[4-(3,5-dimethyl-1H-pyrazol-4-yl)anilino]-2-oxo-ethyl]-2-sec-butyl-pyrazole-3-carboxamide]: less than 100 nM.

(Values after patent US11377425B1, “Small molecule modulators of IL-17” (LEO Pharma A/S, priority 2018, dated 2022).)
